Measured values taken from US11058902B2, “Compositions and methods for treating disease associated with permeability of intestinal epithelium” (9 Meters Biopharma, Inc., priority 2017, dated 2021).
Read-outs that look alike come from different tables or passages of the source.

Assays:
[1] = tested on: ischemic-injured porcine jejunum; assay: Recovery of barrier function (transepithelial resistance, TER) in ischemic-injured porcine jejunum mucosa ex vivo in Ussing chambers; assay type: cell-based, Yorkshire-cross pigs; details: fragment added together with larazotide
Text: Intestinal epithelial tight junction integrity is crucial to maintain an intact intestinal barrier against noxious luminal contents. […] Porcine mucosa injured by ischemia/reperfusion injury is abnormally permeable until interepithelial tight junctions have re-assembled.
(§1) Yorkshire-cross pigs 6-8-weeks-of-age were anesthetized, followed by midline laparotomy and creation of a series of 10 cm intestinal loops commencing proximal to the ileum by ligating the intestinal lumen. The local mesenteric vasculature was ligated to select treatment loops for 45-min, whereas other loops were left as non-ischemic controls. Loops were subsequently resected, and the mucosal tissues were stripped in oxygenated (95% O2/5% CO2) Ringers from the muscle layers in preparation for ex vivo incubation in Ussing chambers. Tissues were monitored by measuring transepithelial resistance (TER) for 240-min. At the end of a 240-min recovery period, tissues were taken for histology and immunofluorescence evaluation of tight junction proteins.

tight junction = assay: Activity as tight junction regulators (larazotide fragments, alone or mixed with larazotide); details: for activity as tight junction regulators: fragment alone
Text: In various embodiments, the methods of the invention comprise treating a subject with larazotide or derivative thereof. Larazotide is a peptide agent that promotes tight junction integrity in the gastrointestinal tract (GI). […] See US 2016/0022760, which is hereby incorporated by reference in its entirety. […] In accordance with this disclosure, it is believed that an aminopeptidase located within the brush borders of the lumen surface may create larazotide-derived fragments, including fragments missing N-terminal glycine residues.

claudin 2 = details: tissues treated with larazotide
Text: as §1

occludin = details: tissues treated with larazotide
Text: as §1

celiac disease symptoms = details: clinical trials, cited from earlier work

Row | Substance | effect of larazotide in the presence of the fragment [1] | activity as tight junction regulators (tight junction) | activity of full length larazotide when mixed with the two fragments (tight junction) | pore (leak)-forming tight junction protein claudin 2 (claudin 2) | localization of the tight junction sealing protein occludin (occludin) | reducing celiac disease symptoms (celiac disease symptoms; higher doses (e.g., 1 mg and 2 mg doses)) | reducing celiac disease symptoms (celiac disease symptoms; lower doses (e.g., 0.5 mg dose))
1 | VLVQPG [larazotide-derived fragment missing N-terminal glycine residues] | blocked | inactive | completely abolished | – | – | – | –
2 | GVLVQPG [larazotide-derived fragment missing an N-terminal glycine residue] | blocked | inactive | completely abolished | – | – | – | –
3 | Gly Gly Val Leu Val Gin Pro Gly [larazotide] | – | – | – | reductions | increased localization | attenuation of activity, or no activity at all | benefit at reducing celiac disease symptoms
